# Experimental data as given in patent US9340559B2, “Proteasome inhibitor delanzomib for use in the treatment of lupus” (Cephalon, Inc., priority 2011, dated 2016).
# How the values were obtained:
# Type in all cases: in vivo, mouse
# [1] = system: MRL/lpr mice; experiment: Serum C3 complement ELISA, MRL/lpr mice; conditions: bortezomib treatment groups
# From the text: Mice are tracked on an individual basis.
# [2] = system: NZM mice; experiment: Renal histopathology scoring (kidney IC-GN), NZM mice (Example 2)
# Method: (§1) For histological analyses, the left kidney from each animal is removed and fixed in 10% buffered neutral formalin (EMD) for 48 hours on an orbital rocker at 25° C., then washed overnight with running dH2O and stored in 70% ethanol at 4° C. until ready to be processed. Kidney stains used for histological analyses included hematoxylin and eosin (H&E), Periodic Acid Schiff (PAS) and Trichrome stains (Wistar Institute, Philadelphia, Pa.). All 3 stained sections are used by the pathologist for scoring purposes. All histological scoring is performed blinded and by an independent board certified veterinary medical pathologist (Julie Engiles, VMD, DACVP). Multiple stains are used to determine score values. Images in FIG. 39 show worst affected area of section selected blindly by the pathologist.
# Kidney IC-GN Scoring Method (Smith, Dong et al. 2007):
# 1. Glomerular cellularity—Score 1-5: Null, low, moderate, high, severe
# 2. Glomerular necrosis—Score 1-5: Null, low, moderate, high, severe
# 3. Glomerulosclerosis—Score 1-5: Null, low, moderate, high, severe
# 4. Interstitial infiltration—Score 1-5: Null, low, moderate, high, severe
# 5. Tubular atrophy—Score 1-5: Null, low, moderate, high, severe
# 6. Interstitial fibrosis—Score 1-5: Null, low, moderate, high, severe
# 7. Vasculitis—Score 1-5: Null, low, moderate, high, severe
# Specific Pathologist Definitions: • Necrosis is defined by the presence of nuclear debris/pyknosis within the glomerular tuft indicative of “necrosis.” In many samples, this is a very mild, rare finding within only a very few segments of the glomerular tuft. Also consider effacement of the glomerular tuft by PAS positive, Trichrome negative material necrosis. • Glomerular sclerosis is defined by increased fibroplasia or fibrosis within the glomerular tuft or capsule. […] Most of the vascular changes are mild and could be considered “arteriosclerosis” characterized by proliferation of the smooth muscle cells, and hyalinization of the extracellular matrix. This change may reflect hypertension secondary to glomerular pathology. In very few animals is there overt “vasculitis.” Most inflammatory changes are within the walls of the blood vessels, with little to no damage to the endothelium, and no overt hemorrhage/fibrin leakage. Many also have perivascular rims of fibroblasts.
# [3] = system: NZM mice; experiment: Renal histopathology blinded scores, NZM mice (Example 3)
# Method: FIG. 52 depicts renal histopathology scores from NZM mice (H&E stained paraffin wax embedded kidney tissues sections from 25 week old mice).
# as §1
# Kidney IC-GN Scoring Method (Smith, Dong et al. 2007): […]
# [4] = system: NZM mice; experiment: Serum IL-12 by Luminex, NZM mice (Example 3)
# Method: FIG. 48 depicts serum IL-12 concentration in NZM mice. Mean±SEM values for the concentration of mouse serum IL-12 from treated NZM mice at the end of the study.
# For the processing of serum samples for cytokine analysis, frozen plasma at −80° C. is thawed on ice, vortexed, and centrifuged for 10 minutes (10,000×g) to remove debris and aggregates. A total of 25-50 μL of serum is used for Luminex assays following the manufacturer's instructions. Ten different mouse cytokines are measured using the mouse cytokine 20-plex bead kit (Invitrogen, Carlsbad, Calif., no. LMC0006). Briefly, filter plates (Millipore, Billerica, Mass., no. MAIPSWU10), are pre-wet with 200 μL of wash solution (kit component) and 25 μL of beads are added per well. Serum samples are diluted and a total volume of 50 μL is added per well (ie, 25 μL of sample serum plus 25 μL of assay diluent as provided by the manufacturer). Plates with beads are incubated for 2 hours at room temperature (RT) on an orbital shaker in the dark. At the end of the incubation, plate(s) are washed twice in kit buffer, secondary biotinylated antibody is added at a 1:10 dilution (100 μL) in biotin diluent provided with the kit. Plates are incubated at RT for 1 hour in the dark then washed twice in kit buffer. Strepavidin in assay diluent is added at 100 μL per well, then incubated for 30 minutes at RT in the dark. The plates are washed 3 times then 100 μL of kit wash solution is added and agitated for 2-3 minutes at RT in the dark. Plates are run immediately following this incubation period on a Luminex xMAP 200 unit with data acquisition and analysis software (Invitrogen, San Diego, Calif., no. MAP0200). All bead washing is performed using a vacuum manifold unit (Pall, Ann Arbor, Mich. no. 5017). For all cytokine Luminex assays, values below the limit of detection set by the lowest point along the standard or set by the manufacturer are considered out of range and are not estimated, but assumed the lowest point along the standard curve for that particular assay.
smiles,measurement,setting,value
"CC(C)C[C@H](NC(=O)[C@H](Cc1ccccc1)NC(=O)c1cnccn1)B(O)O [bortezomib, reference compound]",serum C3 relative to vehicle,[1],did not exhibit a significant increase in serum C3
same,"Kidney glomerular cellularity, percent change vs vehicle","[2]; G3 0.3 mg/kg ip, 1× wk",−12%
same,"Kidney glomerular necrosis, percent change vs vehicle","[2]; G3 0.3 mg/kg ip, 1× wk",18%
same,"Kidney glomerulosclerosis, percent change vs vehicle","[2]; G3 0.3 mg/kg ip, 1× wk",8%
same,"Kidney interstitial fibrosis, percent change vs vehicle","[2]; G3 0.3 mg/kg ip, 1× wk",−5%
same,"Kidney interstitial infiltration, percent change vs vehicle","[2]; G3 0.3 mg/kg ip, 1× wk",−15%
same,"Kidney tubular atrophy, percent change vs vehicle","[2]; G3 0.3 mg/kg ip, 1× wk",−6%
same,"Kidney vasculitis, percent change vs vehicle","[2]; G3 0.3 mg/kg ip, 1× wk",−21%
same,"p, interstitial infiltration (II) vs G7 Vehicle",[2]; G4 0.3 mg/kg 2× wk,p < 0.05
same,"Kidney glomerular cellularity, percent change vs vehicle","[2]; G4 0.3 mg/kg ip, 2× wk",−21%
same,"Kidney glomerular necrosis, percent change vs vehicle","[2]; G4 0.3 mg/kg ip, 2× wk",3%
same,"Kidney glomerulosclerosis, percent change vs vehicle","[2]; G4 0.3 mg/kg ip, 2× wk",−29%
same,"Kidney interstitial fibrosis, percent change vs vehicle","[2]; G4 0.3 mg/kg ip, 2× wk",−22%
same,"Kidney interstitial infiltration, percent change vs vehicle","[2]; G4 0.3 mg/kg ip, 2× wk",−44%
same,"Kidney tubular atrophy, percent change vs vehicle","[2]; G4 0.3 mg/kg ip, 2× wk",−32%
same,"Kidney vasculitis, percent change vs vehicle","[2]; G4 0.3 mg/kg ip, 2× wk",−14%
same,interstitial infiltration reduction vs vehicle,[2]; bortezomib treatment group (twice weekly dose),44%
same,decrease in renal histopathology score over several parameters vs vehicle,"[2]; mouse, in vivo",6-14%
same,combined average renal histopathology blinded score decrease vs vehicle,"[3]; Group 7, ip",19.4%
same,combined average renal histopathology blinded score decrease vs vehicle,"[3]; Group 8, sc",43.6%
same,serum IL-12 decrease vs vehicle,"[4]; Group 7, ip",65.8%
same,serum IL-12 decrease vs vehicle,"[4]; Group 8, sc",75.6%
"C[C@@H]1C[C@H]2[C@@H]3CCC4=CC(=O)C=C[C@]4(C)[C@@]3(F)[C@@H](O)C[C@]2(C)[C@@]1(O)C(=O)CO [dexamethasone, Dexamethasone, reference compound]","Kidney glomerular cellularity, percent change vs vehicle","[2]; G5 1.5 mg/kg ip, 3× wk",−38%
same,"Kidney glomerular necrosis, percent change vs vehicle","[2]; G5 1.5 mg/kg ip, 3× wk",−16%
same,"Kidney glomerulosclerosis, percent change vs vehicle","[2]; G5 1.5 mg/kg ip, 3× wk",−17%
same,"Kidney interstitial fibrosis, percent change vs vehicle","[2]; G5 1.5 mg/kg ip, 3× wk",−36%
same,"Kidney interstitial infiltration, percent change vs vehicle","[2]; G5 1.5 mg/kg ip, 3× wk",−36%
same,"Kidney tubular atrophy, percent change vs vehicle","[2]; G5 1.5 mg/kg ip, 3× wk",−25%
same,"Kidney vasculitis, percent change vs vehicle","[2]; G5 1.5 mg/kg ip, 3× wk",−40%
same,"p, glomerular cellularity (GC) vs G8 NZW/LacJ non-diseased",[2]; G6 1.5 mg/kg 1× wk,p < 0.01
same,"p, glomerular necrosis (GN) vs G5 CTX 50 mg/kg 1× wk",[2]; G6 1.5 mg/kg 1× wk,p < 0.05
same,"p, glomerular necrosis (GN) vs G8 NZW/LacJ non-diseased",[2]; G6 1.5 mg/kg 1× wk,p < 0.01
same,"p, glomerular necrosis (GN) vs G9 NZM diseased baseline",[2]; G6 1.5 mg/kg 1× wk,p < 0.05
same,"p, glomerulosclerosis (GS) vs G4 Bortezomib 0.3 mg/kg 2× wk",[2]; G6 1.5 mg/kg 1× wk,p < 0.001
same,"p, glomerulosclerosis (GS) vs G5 CTX 50 mg/kg 1× wk",[2]; G6 1.5 mg/kg 1× wk,p < 0.05
same,"p, glomerulosclerosis (GS) vs G8 NZW/LacJ non-diseased",[2]; G6 1.5 mg/kg 1× wk,p < 0.001
same,"p, glomerulosclerosis (GS) vs G9 NZM diseased baseline",[2]; G6 1.5 mg/kg 1× wk,p < 0.05
same,"p, interstitial fibrosis (IF) vs G5 CTX 50 mg/kg 1× wk",[2]; G6 1.5 mg/kg 1× wk,p < 0.05
same,"p, interstitial fibrosis (IF) vs G8 NZW/LacJ non-diseased",[2]; G6 1.5 mg/kg 1× wk,p < 0.05
same,"p, interstitial infiltration (II) vs G4 Bortezomib 0.3 mg/kg 2× wk",[2]; G6 1.5 mg/kg 1× wk,p < 0.01
same,"p, interstitial infiltration (II) vs G5 CTX 50 mg/kg 1× wk",[2]; G6 1.5 mg/kg 1× wk,p < 0.05
same,"p, interstitial infiltration (II) vs G8 NZW/LacJ non-diseased",[2]; G6 1.5 mg/kg 1× wk,p < 0.05
same,"p, tubular atrophy (TA) vs G4 Bortezomib 0.3 mg/kg 2× wk",[2]; G6 1.5 mg/kg 1× wk,p < 0.01
same,"p, tubular atrophy (TA) vs G5 CTX 50 mg/kg 1× wk",[2]; G6 1.5 mg/kg 1× wk,p < 0.05
same,"p, tubular atrophy (TA) vs G8 NZW/LacJ non-diseased",[2]; G6 1.5 mg/kg 1× wk,p < 0.01
